The source of these data is patent US20260176289A1, “SMALL MOLECULE INHIBITORS OF KRAS PROTEINS” (Merck Sharp & Dohme LLC, priority 2022, published 2026).

For one assay, the target named is KRAS-WT (Homo sapiens, UniProt P01116). The assay can be described thus: SOS-catalyzed nucleotide exchange assay (Procedure A, TR-FRET), KRAS-WT. The note with it: nucleotide exchange, read-out: KRAS WT GNE IC50. Format: biochemical. The text has this:
(§1) Procedure for SOS-Catalyzed Nucleotide Exchange Assay for KRAS-WT, G12C/D/V, G13D, HRAS, and NRAS (Procedure A)
(§2) Recombinant KRAS-G12C protein used in this assay has an additional triple mutation (C51S/C80L/C118S). Whereas KRAS-WT, G12D/V, G13D, HRAS and NRAS are in context of their WT protein sequence background. Specifically, the SOS-catalyzed nucleotide exchange assay utilizes a preformed TR-FRET complex containing a specific biotinylated RAS protein (KRAS-WT, G12C/V/D, G13D, HRAS, NRAS; described above) with Bodipy-GDP, and Terbium-streptavidin. Compounds are preincubated with this complex for 60 minutes. Subsequently, recombinant human SOS protein and unlabeled GTP are added to initiate the exchange reaction. Small molecule inhibitors stabilize the Bodipy-GDP complex whereas the untreated protein rapidly exchanges Bodipy-GDP for unlabeled GTP resulting in reduced TR-FRET signal.
(§3) To assemble the preformed TR-FRET complexes, each biotinylated RAS protein is diluted to 2 μM in an EDTA Buffer (20 mM HEPES pH 7.5, 50 mM sodium chloride, 10 mM EDTA, and 0.01% Tween) and incubated at room temperature for one hour. This mixture is then further diluted to 90 nM in an Assay Buffer (20 mM HEPES pH 7.5, 150 mM sodium chloride, 10 mM magnesium chloride, and 0.005% Tween) containing 15 nM of Terbium-Streptavidin (Invitrogen, catalog #PV3577) and 900 nM of Bodipy-GDP (Invitrogen, catalog #G22360) and incubated at room temperature for six hours. It should be noted that this preformed TR-FRET complex for each of the RAS protein were made ahead of time, aliquoted and stored at −80° C. until the day of the experiment.
(§4) Each test compound (10 mM stock in DMSO) is diluted in DMSO to make a final-10-point, 3-fold dilution and is acoustically dispensed into a 384-well assay plate (Corning, catalog #3820) using an Echo 550 (Labcyte). Each well of the assay plate receives 3 μL of a specific 3×RAS preformed TR-FRET complex and 3 μL of Assay Buffer and is incubated at room temperature for 60 minutes (preincubation time). Each well then receives 3 μL of 3×recombinant human SOS protein and GTP (Sigma, G8877) in Assay Buffer and is incubated at room temperature for 30 minutes (G13D), 60 minutes (KRAS WT/G12C/D, H/NRAS) or 90 minutes for G12V. The final reaction in each well of 9 μL consists of 3 mM GTP, specific Ras and SOS proteins in the following concentrations: KRAS-G12C/SOS=3 nM/40 nM, KRAS-WT and G12D/SOS=1 nM/40 nM, KRAS-G12V/SOS=1.25 nM/160 nM. KRAS-G13D/SOS=1.25 nM/0 nM, HRAS and NRAS=1.25 nM/40 nM.
(§5) The time-resolved fluorescence resonance energy transfer (TR-FRET) signal is measured on an Envision (PerkinElmer) plate reader: Excitation filter=340 nm; emission 1=495 nm; emission2=520 nm; dichroic mirror=D400/D505; delay time=[…]. The signal of each well is determined as the ratio of the emission at 520 nm to that at 495 nm. Percent effect of each well is determined after normalization to control wells containing DMSO (no effect) or a saturating concentration of inhibitor (max effect). The apparent effect as a function of compound concentration is fit to a four-parameter logistic equation.
For orientation: In TR-FRET formats the signal depends on donor and acceptor labels being close together.

The target in a further assay is KRAS-G12D (Homo sapiens, UniProt P01116, G12D). Kind of assay: SOS-catalyzed nucleotide exchange assay (Procedure A, TR-FRET), KRAS-G12D. Format: biochemical. The following applies: nucleotide exchange, read-out: KRAS G12D GNE IC50.
Chain of KRAS-G12D (P01116 with tags, fused parts or gaps isoform P01116-2 G12D): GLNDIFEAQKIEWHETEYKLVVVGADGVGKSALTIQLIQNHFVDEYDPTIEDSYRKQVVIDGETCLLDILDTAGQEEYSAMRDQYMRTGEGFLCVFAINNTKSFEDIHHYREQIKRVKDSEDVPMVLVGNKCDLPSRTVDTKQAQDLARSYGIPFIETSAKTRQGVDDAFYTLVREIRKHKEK
Source text: as §1, §2, §3, §4, §5

Another assay addresses KRAS-G12V (Homo sapiens, UniProt P01116, G12V). The assay can be described thus: SOS-catalyzed nucleotide exchange assay (Procedure A, TR-FRET), KRAS-G12V. Format: biochemical. The following applies: nucleotide exchange, read-out: KRAS G12V GNE IC50.
Source text: as §1, §2, §3, §4, §5

For a further assay, the system named is AsPC-1 cells. The assay can be described thus: Cellular phospho-ERK assay, AsPC-1 cells (homozygous KRAS-G12D). Format: cell-based. The note with it: Homo sapiens, ASPC1, 2 h, read-out: AsPC1 pERK IC50. As to the method: Procedure for Cellular Phospho-ERK Assay in KRAS Wild Type and Mutant (G12D, G12V) Cell Lines
MKN-1 cells (JCRB JCRB0252) containing amplified wild-type KRAS, were cultured in growth medium that contains RPMI 1640-GlutaMAX™-I (ThermoFisher Scientific 61870) containing 10% heat inactivated fetal bovine serum (ThermoFisher Scientific 10091148), 1 mM sodium pyruvate and 10 mM HEPES. PANC08.13 cells (ATCC® CRL-2551™), containing homozygous KRAS-G12D activating mutation, were cultured in growth medium made of RPMI1640-GlutaMAX™-I (ThermoFisher Scientific 61870) containing 15% heat inactivated fetal bovine serum (ThermoFisher Scientific 10091148)). AsPC-1 cells (ATCC® CRL-1682™), containing homozygous KRAS-G12D activating mutation, were cultured in T150 flask in growth medium (RPMI medium 1640-GlutaMAX™-I (ThermoFisher Scientific 61870) containing 10% fetal bovine serum (ThermoFisher Scientific 10091148)). SW620 cells (ATCC® […]), containing homozygous KRAS-G12V activating mutation, were cultured in growth medium that contains RPMI 1640-GlutaMAX™-I (ThermoFisher Scientific 61870) containing 10% heat inactivated fetal bovine serum (ThermoFisher Scientific 10091148).
Cells for the assay were harvested in growth medium after TrypLE (ThermoFisher scientific 12604021) digestion and were seeded in a 384-well collagen coated cell culture plate (Corning 356702) at a density of 10,000-15,000 cells/20 μL/well, and incubated at 37° C., 5% CO2 overnight. The compound (with 10 mM stock concentration) dose-response titrations were prepared [30 μM final ERK detection assay concentration and 1:3 dilutions, 10-point dose response] and appropriate amounts (270 nL) of test compounds were dispensed in a 384-well intermediate plate using an Echo 550 liquid handler. 30 μL/well of RPMI medium 1640-GlutaMAX™—I was added to the intermediate plate and the contents of the intermediate plate (10 μL/well) were then transferred to the 384-well collagen coated cell culture plate, which was incubated at 37° C., 5% CO2 for 2 hours. After removal of medium from the collagen coated cell culture plate, cells were lysed in lysis buffer from Alpha SureFire® Ultra™ Multiplex p-ERK and total ERK assay kit (PerkinElmer MPSU-PTERK) containing Halt™ Protease and Phosphatase inhibitor cocktail (ThermoFisher Scientific 78446) at room temperature with constant shaking at 300 rpm for 30 minutes. The cell lysates were then transferred to an OptiPlate-384 plate (PerkinElmer 6005620), and the phosphorylation of ERK (p-ERK) and total ERK levels were detected by Alpha SureFire® Ultra™ Multiplex p-EEK kit and total ERK assay kit (PerkinElmer MPSU-PTERK) following the manufacturer's protocol. Assay plates were read on a En Vision Multimode Plate Reader (PerkinElmer), and the ratio of p-ERK vs. total ERK in each well was used as the final readout. Dose response curves were analyzed using a 4-parameter logistic model to calculate IC50 values using Spotfire software.

Where two headings read alike, the source gives them in different places.

By IC50 is commonly meant the concentration that gives 50% inhibition.

Chain of KRAS-WT (P01116 with tags, fused parts or gaps isoform P01116-2): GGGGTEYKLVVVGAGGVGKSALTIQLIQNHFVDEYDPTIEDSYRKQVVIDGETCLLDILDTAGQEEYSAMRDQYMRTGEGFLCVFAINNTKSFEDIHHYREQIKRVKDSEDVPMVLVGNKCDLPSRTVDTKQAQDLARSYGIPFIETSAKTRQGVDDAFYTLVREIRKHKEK
Chain of KRAS-G12V (P01116 with tags, fused parts or gaps isoform P01116-2 G12V): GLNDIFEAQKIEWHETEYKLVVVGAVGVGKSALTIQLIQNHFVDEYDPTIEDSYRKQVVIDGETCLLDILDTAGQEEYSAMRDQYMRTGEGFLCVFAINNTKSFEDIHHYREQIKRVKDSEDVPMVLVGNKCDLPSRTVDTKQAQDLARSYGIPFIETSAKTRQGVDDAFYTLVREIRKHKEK

For the compound `Cc1cc2[nH]ncc2c(-c2nccc3c2sc2nc(OC[C@@]45CCCN4C[C@H](F)C5)nc(N4CCOC[C@@](C)(O)C4)c23)c1SC(F)(F)F` [Ex-45, (6S)-4-(2-(((2R,7aS)-2-fluorotetrahydro-1H-pyrrolizin-7a(5H)-yl)methoxy)-8-(6-methyl-5-((trifluoromethyl)thio)-1H-indazol-4-yl)pyrido[4′,3′:4,5]thieno [2,3-d]pyrimidin-4-yl)-6-methyl-1,4-oxazepan-6-ol], the half-maximal inhibitory concentration (IC50) is 374 nM at KRAS-WT; 167 nM on KRAS-G12D; 153 nM on KRAS-G12V; 1110 nM in the assay with AsPC-1 cells (KRAS-G12D, 2 hours).
Take `C[C@@]1(O)COCCN(c2nc(OC[C@]3(CN4CC(C#N)C4)CC3(F)F)nc3sc4c(-c5c(C6(F)CC6)c(Cl)cc6[nH]ncc56)nccc4c23)C1` [Ex-238, 1-(((IR)-1-(((8-(6-chloro-5-(1-fluorocyclopropyl)-1H-indazol-4-yl)-4-((S)-6-hydroxy-6-methyl-1,4-oxazepan-4-yl)pyrido[4′,3′:4,5]thieno[2,3-d]pyrimidin-2-yl)oxy)methyl)-2,2-difluorocyclopropyl)methyl]a-zetidine-3-carbonitrile]: the IC50 at KRAS-WT amounted to 446 nM; on KRAS-G12D it was 112 nM; at KRAS-G12V, 400 nM; in the assay with AsPC-1 cells (2 hours compound incubation), 4120 nM.
Consider `Cc1cc2[nH]ncc2c(-c2nncc3c2sc2nc(OC[C@@]45CCCN4C[C@H](F)C5)nc(N4CCOC[C@@](C)(O)C4)c23)c1-c1ccco1` [Ex-281, (6S)-4-(2-(((2R,7aS)-2-fluorotetrahydro-1H-pyrrolizin-7a(5H)-yl)methoxy)-8-(5-(furan-2-yl)-6-methyl-1H-indazol-4-yl)pyrimido[5′,4′:4,5]thie-no[2,3-d]pyridazin-4-yl)-6-methyl-1,4-oxazepan-6-ol], for which the half-inhibitory concentration (IC50) at KRAS-WT worked out at 31.2 nM; at KRAS-G12D, 8.24 nM; on KRAS-G12V, 11.7 nM; with AsPC-1 cells (KRAS-G12D, 2 hours) it was 356 nM.
As for `COC1CC2(C1)CN(C[C@@]1(COc3nc(N4CCOC[C@@](C)(O)C4)c4c(n3)sc3c(-c5c(C6(F)CC6)c(Cl)cc6[nH]ncc56)nccc34)CC1(F)F)C2` [Ex-263, (6S)-4-(8-(6-chloro-5-(1-fluorocyclopropyl)-1H-indazol-4-yl)-2-(((R)-2,2-difluoro-1-((6-methoxy-2-azaspiro[3.3]heptan-2-yl)methyl)cyclopropyl)metho-xy)pyrido[4′,3′:4,5]thieno[2,3-d]pyrimidin-4-yl)-6-methyl-1,4-oxazepan-6-ol], the IC50 is 11.4 nM at KRAS-WT, 3.02 nM on KRAS-G12D, 12.5 nM at KRAS-G12V and 111 nM in the assay with AsPC-1 cells (2 hours compound incubation).
`C=CC(F)(F)c1c(C)cc2[nH]ncc2c1-c1nccc2c1sc1nc(OC[C@@]34CCCN3C[C@H](F)C4)nc(N3CCOC[C@@](C)(O)C3)c12` [Ex-152, (6S)-4-(8-(5-(1,1-difluoroallyl)-6-methyl-1H-indazol-4-yl)-2-(((2R,7aS)-2-fluorotetrahydro-1H-pyrrolizin-7a(5H)-yl)methoxy)pyrido[4′,3′:4,5]thieno[2,3-d]pyrimidin-4-yl)-6-methyl-1,4-oxazepan-6-ol]: the IC50 stood at 195 nM at KRAS-WT, 76.9 nM at KRAS-G12D, 106 nM at KRAS-G12V and 636 nM in the assay on AsPC-1 cells (2 hours compound incubation).
With `C[C@@]1(O)COCCN(c2nc(OC[C@]3(CN4CCC[C@H]4CF)CC3(F)F)nc3sc4c(-c5c(C6(F)CC6)c(Cl)cc6[nH]ncc56)nccc4c23)C1` [Ex-247, (6S)-4-(8-(6-chloro-5-(1-fluorocyclopropyl)-1H-indazol-4-yl)-2-(((R)-2,2-difluoro-1-(((S)-2-(fluoromethyl)pyrrolidin-1-yl)methyl)cyclopropyl)metho-xy)pyrido[4′,3′:4,5]thieno[2,3-d]pyrimidin-4-yl)-6-methyl-1,4-oxazepan-6-ol], the IC50 on KRAS-WT came to 352 nM; at KRAS-G12D, 74.6 nM; on KRAS-G12V, 320 nM; in the assay with AsPC-1 cells (2 hours compound incubation), 977 nM.
For `Cc1cc2[nH]ncc2c(-c2nccc3c2sc2nc(OC[C@@]45CCCN4C[C@H](F)C5)nc(N4CCC[C@@]5(CNC(=O)O5)C4)c23)c1C(F)(F)F` [Ex-196, (5R)-7-(2-(((2R,7aS)-2-fluorotetrahydro-1H-pyr-rolizin-7a(5)-yl)methoxy)-8-(6-methyl-5-(trifluoro-methyl)-1H-indazol-4-yl)-pyrido[4′,3′:4,5]thieno[2,3-d]pyrimidin-4-yl)-1-oxa-3,7-diazaspiro[4.5]decan-2-one] the same measures were 35.8 nM, 8.06 nM, 19.4 nM and 1870 nM.
`CO[C@]12CC[C@H]1CN(C[C@@]1(COc3nc(N4CCOC[C@@](C)(O)C4)c4c(n3)sc3c(-c5c(C6(F)CC6)c(Cl)cc6[nH]ncc56)nccc34)CC1(F)F)C2` [Ex-260, (6S)-4-(8-(6-chloro-5-(1-fluorocyclopropyl)-1H-indazol-4-yl)-2-(((R)-2,2-difluoro-1-(((1R,5S)-1-methoxy-3-azabicyclo[3.2.0]heptan-3-yl)methyl)cyclopropyl)metho-xy)pyrido[4′,3′:4,5]thieno[2,3-d]pyrimidin-4-yl)-6-methyl-1,4-oxazepan-6-ol]: the IC50 amounted to 486 nM at KRAS-WT, 41.6 nM on KRAS-G12D, 185 nM at KRAS-G12V and 1210 nM with AsPC-1 cells (2 hours compound incubation).
